Four compounds from patent publication US4201771A (priority 1979, dated 1980) can be followed below.

What all share (type): in vivo
Data set [1] concerns Puccinia recondita f. sp. tritici. The following applies: untreated 27.
The next data set concerns Phytophthora infestans. The following applies: untreated 84.
Data set [2] concerns Piricularia oryzae. As to conditions: for Rice Blast Lesions/5th Leaf Protectant: Table 1, untreated 52; for Rice Blast Lesions per 5th Leaf: Table 2, protectant, untreated control 22.
Data set [3] concerns Piricularia oryzae. The following applies: 1000 PPM; untreated 69.
Data set [4] relates to Puccinia recondita f. sp. tritici. The following applies: 1000 PPM; untreated 42.
Data set [5] relates to Rice, variety Calusa No. 2. The experiment in a line: Phytotoxicity / injury on rice in greenhouse bioassay. As to conditions: Table 2, rice. The method, then:
Host: Rice, variety Calusa No. 2.
Growth Conditions: Rice plants grown to 5 leaf stage in greenhouse on Swiss Farm Potting soil in 7 ounce styrafoam pots. Thinned to 3 seedlings per pot. Day temperature 20°-28° C.; night temperature 15°-20° C. Soluble 20--20--20 fertilizer applied weekly.
Treatment: Test solutions or suspensions of candidate compounds sprayed on both leaf surfaces to run-off with a No. 152 DiVilbiss atomizer at 10 psi. Formulations are prepared by dissolving compounds in methanol-Tween 20 mixture and bringing to volume with deionized water.

Like-named read-outs stand apart in the source and are kept apart here.

For the compound `S=C([S-])NCCNC(=S)[S-].[Mn+2]` [Maneb, [[1,2-Ethanediylbis[carbamodithioato]]-(2-)]manganese], the entries for the “Wheat Leaf Rust Pustules/Leaf Protectant” value in data set [1] (1 PPM), in data set [1] (10 PPM) and in data set [1] (100 PPM) were 20, 12 and 0, respectively. For the same compound, the “Late Blight (Tomato) Phytophthora % Leaf Necrosis Protectant” value is 77% in the data set with Phytophthora infestans (1 PPM), 63% in the data set with Phytophthora infestans (10 PPM) and 11% in the data set on Phytophthora infestans (100 PPM).

`CCOP(=O)(Sc1ccccc1)Sc1ccccc1` [Hinosan, O-Ethyl 5,5-diphenylphosphorodithioate]: the “Rice Blast Lesions/5th Leaf Protectant” value with Piricularia oryzae [2] (1 PPM) is 16; in the data set with Piricularia oryzae [2] (10 PPM) it was 8; in the data set on Piricularia oryzae [2] (100 PPM), below 1. Besides, the “Rice Blast Lesions/5th Leaf Systemic” value with Piricularia oryzae [3] came out at 31.

Turning to `CC1=C(C(=O)Nc2ccccc2)SCCO1` [Carboxin, 5,6Dihydro-2-methyl-N-phenyl-1,4-oxathiin-3-carboxamide], in data set [4], the “Wheat Leaf Rust Pustules/Leaf Systemic” value is listed as 4.

In the case of `CCCCNC(=O)n1c(NC(=O)OC)nc2ccccc21` [Benomyl, [1-[(Butylamino)carbonyl]-1H-benzimidazol-2-yl]carbamic acid methyl ester], the “Rice Blast Lesions per 5th Leaf” value with Piricularia oryzae [2] (1 PPM) came to 4; in the data set on Piricularia oryzae [2] (10 PPM), 4; in the data set with Piricularia oryzae [2] (100 PPM), 0.1. Also, the “Remarks (plant injury)” value in data set [5] (1 PPM), in data set [5] (10 PPM) and in data set [5] (100 PPM) was “no injury” in each case.
